Test results from patent US11286263B2, “Macrocyclic fluorine substituted indole derivatives” (The Broad Institute, Inc., priority 2017, dated 2022).
Values joined by “and” are separate entries in the source; they are usually repeats but may differ in a detail not shown here. Identical values can stand only once. Counter-ions that a name gives are not always drawn. Like-named read-outs stand apart in the source and are kept apart here.

Columns and labels:
[1] = target: MCL1 protein (Homo sapiens (Human), UniProt Q07820); experiment: PIxEL: protein-protein interaction in permeabilized cells by ELISA (Assay 5); format: cell-based; conditions: permeabilized RKO cells, biotin-BIM BH3 peptide, median
MCL1 protein, sequence (Q07820 whole entry): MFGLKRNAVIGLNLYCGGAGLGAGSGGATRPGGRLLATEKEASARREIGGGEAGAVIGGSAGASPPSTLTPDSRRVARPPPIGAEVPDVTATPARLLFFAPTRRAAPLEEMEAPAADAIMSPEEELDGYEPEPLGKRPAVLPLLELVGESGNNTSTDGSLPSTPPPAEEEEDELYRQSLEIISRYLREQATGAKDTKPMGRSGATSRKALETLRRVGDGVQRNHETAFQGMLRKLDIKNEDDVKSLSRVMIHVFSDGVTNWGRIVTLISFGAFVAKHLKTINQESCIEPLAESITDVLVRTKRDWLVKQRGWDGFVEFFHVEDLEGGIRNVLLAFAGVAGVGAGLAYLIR
Description: Assay 5 PI×EL: Protein-Protein Interaction in Permeabilized Cells by ELISA
Most MCL1 protein molecules are localized at the mitochondria outer membrane and sequester pro-apoptotic proteins through binding of their BCL2 homology domain 3 (BH3 domain). MEB buffer (150 mM mannitol, 10 mM HEPES pH 7.5, 50 mM KCl, 20 μM EDTA, 20 μM EGTA, 5 mM potassium succinate, 0.1% protease-free BSA (SIGMA) with low dose digitonin (0.002%) permeabilizes plasma membrane while leaves live mitochondria, where MCL1 maintains its native localization and conformation. Unlike biophysical assays (e.g. TR-FRET) that use truncated recombinant MCL1 protein, this assay uses full length endogenous MCL1 protein at mitochondria outer membrane. It measures the interaction between MCL1 protein and biotinylated BIM BH3 peptide. Compounds can compete with BIM BH3 peptide to bind to MCL1 protein. This serum free assay measures the affinity between MCL1 protein and compound in permeabilized cells, therefore it is not affected by serum binding and cell permeability, and can measure the intrinsic compound affinity.
On day 1, RKO colon cancer cell line cells were plated at 0.8 million cells/ml, 100 μl/well in 96-well flat bottom TC plates (Corning). MCL1 antibody (Santa Cruz sc-12756) were diluted at 200 fold (final concentration 1 μg/ml) in carbonate buffer (Thermo Fisher Scientific, pH 9.6), and 50 μl of diluted antibody was added to each well of high bind ELISA plates (SARSTEDT). Each plate was tapped to make sure liquid covering entire bottom of wells and incubate at 37° C. overnight.
On the second day, MCL1 antibody was washed from ELISA plate. 250 μl Odyssey® Blocking Buffer (PBS) (Li-Cor) was added to each well, incubated at room temperature for at least 1 hour, then washed once with 250 μl 1×PBST. Plates with RKO cells were gently washed once with 100 μl/well PBS, once with 100 μl/well MEB buffer without digitonin, then 100 μl of MEB buffer with 0.002% digitonin was gently added to each well. Compounds were added with HP Tecan compound dispenser in 3-fold dilution series, highest dose 30 μM, 10-dose per compound in quadruplicates. Biotin-BIM peptide (synthesized by 21st Century) was added with HP Tecan compound dispenser at 0.2 μM immediately after the addition of compounds. Plates were rocked for 1 hour at room temperature. Then MEB buffer was aspirated and 50 μl of CHAPS buffer (50 mM Tris-Cl, pH 7.4, 150 mM NaCl, 1% CHAPS, 1 mM EDTA, 1 mM EGTA, complete protease inhibitors (Roche), PhosSTOP (Roche)) was added to each well. Plates were rocked for 1 hour at 4° C., then 45 μl cell lysate from each well were transferred to ELISA plates coated with MCL1 antibody. Plates were incubated overnight in the cold room with rocking.
On the third day, ELISA plates were washed once with 250 μl 1×PBST. Streptavidin-poly-HRP (Thermo Fisher Scientific) was diluted to 20 ng/ml in Odyssey blocking buffer plus 0.05% Triton-100, and 100 μl was added to each well of the ELISA plate. Plates were incubated at room temperature for 1 hour with rocking, then washed with 100 μL 1×PBST for 3 times. Each SuperSignal ELISA Femto Maximum Sensitivity substrate was added to a 50-ml tube and mixed, then 100 μl of mixed substrate was added to each well. Plates were shaken for 1 minute then luminescence was measured by Envision plate reader […]. Signal of each well were normalized by no-compound control and no-cell control. IC50 was calculated using Graphic Pad PRISM software.

[2] = tested on: AMO-1; experiment: Antiproliferation assay AMO-1 (Assay 7); format: cell-based; conditions: AMO-1 cells, CellTiter-Glo, single determinations, read-out: IC50 Antiproli AMO-1
Summary of the method: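 Cells plated in treatment plates plus a day 0 reference plate; incubated 72 h at 37 °C; CellTiter-Glo added, 10 min incubation, luminescence read; day 0 plate read at time zero.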

`Cc1c2c(nn1C)COCCCCn1c(C(=O)O)c(CCCOc3ccc(F)c4ccccc34)c3ccc(F)c-2c31` (single isomer, unassigned; enantiomer 1) [Example 16, 4-fluoro-7-{3-[(4-fluoronaphthalen-1-yl)oxy]propyl}-2,3-dimethyl-2,10,11,12,13,15-hexahydro-pyrazolo[4′,3′:9,10][1,6]oxazacycloundecino[8,7,6-hi]indole-8-carboxylic acid (enantiomer 1)] gave an IC50 [1] of 32.3 µM and an IC50 ([2]; 72 h) of 6.95 µM.

With `Cc1c2c(nn1C)COCCCCn1c(C(=O)O)c(CCCOc3ccc(F)c4ccccc34)c3ccc(F)c-2c31` (racemic) [Example 15, (rac)-13-fluoro-1-(3-((4-fluoronaphthalen-1-yl)oxy)propyl)-11,12-dimethyl-4,5,6,7,9,11-hexahydropyrazolo[4′,3′:9,10][1]oxa[6]azacycloundecino[8,7,6-hi]indole-2-carboxylic acid] the IC50 [1] was 4.16 µM.

In the case of `Cc1c2c(nn1C)CNCCCCn1c(C(=O)O)c(CCCOc3cccc4ccccc34)c3ccc(F)c-2c31` (single isomer, unassigned; enantiomer 1) [Example 48, 4-fluoro-2,3-dimethyl-7-{3-[(naphthalen-1-yl)oxy]propyl}-10,11,12,13,14,15-hexahydro-2H-pyrazolo[3′,4′:8,9][1,6]diazacycloundecino[10,11,1-hi]indole-8-carboxylic acid (enantiomer 1)], the IC50 ([2]; 72 h) is reported as 2.86 µM.

`Cc1nn(C)c2c1-c1c(F)ccc3c(CCCOc4cccc5c4CCCC5)c(C(=O)O)n(c13)CCCCOC2` (racemic) [Example 34, (rac)-13-fluoro-10,12-dimethyl-1-(3-((5,6,7,8-tetrahydronaphthalen-1-yl)oxy)propyl)-4,5,6,7,9,10-hexahydropyrazolo[4′,3′:9,10][1]oxa[6]azacycloundecino[8,7,6-hi]indole-2-carboxylic acid] was tested, and the IC50 ([2]; Homo sapiens, AMO1, 72 h) was 6.92 µM.

Work on `CCc1nn(C)c2c1-c1c(F)ccc3c(CCCOc4cccc5c4CCC5)c(C(=O)O)n(c13)CCCCOC2` (racemic) [Example 45, (rac)-1-(3-((2,3-dihydro-1H-inden-4-yl)oxy)propyl)-12-ethyl-13-fluoro-10-methyl-4,5,6,7,9,10-hexahydropyrazolo[4′,3′:9,10][1]oxa[6]azacycloundecino[8,7,6-hi]indole-2-carboxylic acid] yielded an IC50 ([2]; Homo sapiens, AMO1, 72 h) of 6.45 µM.

“(rac)-1-(3-((2,3-dihydro-1H-inden-4-yl)oxy)propyl)-12-ethyl-13-fluoro-11-methyl-4,5,6,7,9,11-hexahydropyrazolo[4′,3′:9,10][1]oxa[6]azacycloundecino[8,7,6-hi]indole-2-carboxylic acid [Example 30]” showed an IC50 ([2]; 72 h) of 1.69 µM.

For `Cc1nn(C)c2c1-c1c(F)ccc3c(CCCOc4cccc5cc(F)ccc45)c(C(=O)O)n(c13)CCCCOC2` (racemic) [Example 32, (rac)-13-fluoro-1-(3-((6-fluoronaphthalen-1-yl)oxy)propyl)-10,12-dimethyl-4,5,6,7,9,10-hexahydropyrazolo[4′,3′:9,10][1]oxa[6]azacycloundecino[8,7,6-hi]indole-2-carboxylic acid], the IC50 ([2]; 72 h) was 4.27 µM and the IC50 ([2]; Homo sapiens, AMO1, 72 h) was 3.98 µM.

With `CCc1nn(C)c2c1-c1c(F)ccc3c(CCCOc4cc(C)c(Cl)c(C)c4)c(C(=O)O)n(c13)CCCCOC2` (racemic) [Example 46, (rac)-1-(3-(4-chloro-3,5-dimethylphenoxy)propyl)-12-ethyl-13-fluoro-10-methyl-4,5,6,7,9,10-hexahydropyrazolo[4′,3′:9,10][1]oxa[6]azacycloundecino[8,7,6-hi]indole-2-carboxylic acid] the IC50 ([2]; 72 h) was 9.1 µM and the IC50 ([2]; Homo sapiens, AMO1, 72 h) was 8.17 µM.

With `Cc1c2c(nn1C)COCCCCn1c(C(=O)O)c(CCCOc3cccc4c3CCC4)c3ccc(F)c-2c31` (racemic) [Example 19, (rac)-1-(3-((2,3-dihydro-1H-inden-4-yl)oxy)propyl)-13-fluoro-11,12-dimethyl-4,5,6,7,9,11-hexahydropyrazolo[4′,3′:9,10][1]oxa[6]azacycloundecino[8,7,6-hi]indole-2-carboxylic acid] the IC50 ([2]; 72 h) was 4.06 µM and the IC50 ([2]; Homo sapiens, AMO1, 72 h) was 2.62 µM.

With `CCc1c2c(nn1C)COCCCCn1c(C(=O)O)c(CCCOc3ccc(F)c4ccccc34)c3ccc(F)c-2c31` (single isomer, unassigned; enantiomer 1) [Example 27, 3-ethyl-4-fluoro-7-{3-[(4-fluoronaphthalen-1-yl)oxy]propyl}-2-methyl-2,10,11,12,13,15-hexahydropyrazolo[4′,3′:9,10][1,6]oxazacycloundecino[8,7,6-hi]indole-8-carboxylic acid-N-ethylethanamine salt (enantiomer 1)] the IC50 [1] was 2.43 µM and the IC50 ([2]; 72 h) was 1.33 µM and 2.53 µM.

With `CCc1c2c(nn1C)COCCCCn1c(C(=O)O)c(CCCOc3cccc4c3CCCC4)c3ccc(F)c-2c31` (racemic) [Example 29, (rac)-12-ethyl-13-fluoro-11-methyl-1-(3-((5,6,7,8-tetrahydronaphthalen-1-yl)oxy)propyl)-4,5,6,7,9,11-hexahydropyrazolo[4′,3′:9,10][1]oxa[6]azacycloundecino[8,7,6-hi]indole-2-carboxylic acid] the IC50 ([2]; Homo sapiens, AMO1, 72 h) was 2.44 µM.

With `CCc1nn(C)c2c1-c1c(F)ccc3c(CCCOc4ccc(F)c5ccccc45)c(C(=O)O)n(c13)CCCCOC2` (single isomer, unassigned; enantiomer 1) [Example 42, 3-ethyl-4-fluoro-7-{3-[(4-fluoronaphthalen-1-yl)oxy]propyl}-1-methyl-1,10,11,12,13,15-hexahydropyrazolo[4′,3′:9,10][1,6]oxazacycloundecino[8,7,6-hi]indole-8-carboxylic acid (enantiomer 1)] the IC50 [1] was 8.91 µM and the IC50 ([2]; 72 h) was 6.96 µM.

`CCc1nn(C)c2c1-c1c(F)ccc3c(CCCOc4cccc5ccccc45)c(C(=O)O)n(c13)CCCCOC2` (racemic) [Example 37, (rac)-12-ethyl-13-fluoro-10-methyl-1-(3-(naphthalen-1-yloxy)propyl)-4,5,6,7,9,10-hexahydro-pyrazolo[4′,3′:9,10][1]oxa[6]azacycloundecino[8,7,6-hi]indole-2-carboxylic acid] showed an IC50 [1] of 7.35 µM.

Work on `CCc1c2c(nn1C)COCCCCn1c(C(=O)O)c(CCCOc3cc(C)c(Cl)c(C)c3)c3ccc(F)c-2c31` (racemic) [Example 31, (rac)-1-(3-(4-chloro-3,5-dimethylphenoxy)propyl)-12-ethyl-13-fluoro-11-methyl-4,5,6,7,9,11-hexahydropyrazolo[4′,3′:9,10][1]oxa[6]azacycloundecino[8,7,6-hi]indole-2-carboxylic acid] yielded an IC50 ([2]; Homo sapiens, AMO1, 72 h) of over 33 µM.

In the case of `CCc1nn(C)c2c1-c1c(F)ccc3c(CCCOc4cccc5c4CCCC5)c(C(=O)O)n(c13)CCCCOC2` (racemic) [Example 44, (rac)-12-ethyl-13-fluoro-10-methyl-1-(3-((5,6,7,8-tetrahydronaphthalen-1-yl)oxy)propyl)-4,5,6,7,9,10-hexahydropyrazolo[4′,3′:9,10][1]oxa[6]azacycloundecino[8,7,6-hi]indole-2-carboxylic acid], the IC50 ([2]; Homo sapiens, AMO1, 72 h) is reported as 7.41 µM.

In the case of `Cc1c2c(nn1C)COCCCCn1c(C(=O)O)c(CCCOc3cccc4c3CCCC4)c3ccc(F)c-2c31` (racemic) [Example 18, (rac)-13-fluoro-11,12-dimethyl-1-(3-((5,6,7,8-tetrahydronaphthalen-1-yl)oxy)propyl)-4,5,6,7,9,11-hexahydropyrazolo[4′,3′:9,10][1]oxa[6]azacycloundecino[8,7,6-hi]indole-2-carboxylic acid], the IC50 ([2]; 72 h) is reported as 2.16 µM and 3.19 µM and the IC50 ([2]; Homo sapiens, AMO1, 72 h) is reported as 3.98 µM.
